Results on eleven compounds are retold here after publication PMC11375702, “Early Preclinical Studies of Ergosterol Peroxide and Biological Evaluation of Its Derivatives” (ACS Omega, 2024).

Structures are written as SMILES. Converted amounts (≈) assume the structure as drawn. Read-outs that look alike come from different tables or passages of the source. Where only a bound is given, the exact number is not on record here.

Series [1] concerns MDA-MB-231. Briefly: CellTiter-Glo 72 h cytotoxicity assay, MDA-MB-231. In kind it is cell-based. The settings on record: Homo sapiens, CTG assay, read-out: MDA-MB231 (EC50). The protocol:
(§1) The following stable human cell lines were utilized for this study: SUM149 and MDA-MB-231 (breast cancer models) and BJ (human normal fibroblast, foreskin). Cells were purchased from BioIVT or the American Type Culture Collection (ATCC). Cells were cultured in F-12-Nutrient Mixture (SUM149), DMEM (MDA-MB-231), or EMEM (BJ) medium supplemented with 10% fetal bovine serum (Sigma-Aldrich, St. Louis, MO) and 2 mmol of L-glutamine, at 37 °C in a humidified 5% CO2 atmosphere (no antibiotics) as indicated by the manufacturer. Cell cultures were grown to 80–90% confluence before use, except where otherwise specified. Our cell lines are authenticated every 3 months using the CellCheck service (Idexx BioResearch, Westbrook, ME). Cells were tested for mycoplasma prior to use (MycoAlert detection Kit Lonza LT07–318) and discarded if they tested positive. A cell proliferation assay was performed using the CellTiter-Glo (Promega Corp., Madison, WI) luminescent cell viability assay kit. Cells were detached with trypsin, counted, and seeded in white polystyrene flat-bottom sterile 96-well tissue culture-treated plates (catalog no. 3917, Corning, Glendale, Arizona) and incubated overnight at 37 °C. MDA-MB231, SUM149, and BJ cells were seeded into 96-well plates at concentrations experimentally determined (0.4 × 10^4, 0.25 × 10^4, and 0.3 × 10^4 cells per well, respectively) to ensure logarithmic growth during the duration of the experiment and to prevent adverse effects on cell growth by DMSO exposure. The plates were incubated for 12 h before treatment. Stock solutions of test compounds (10 mM in DMSO) in nine 3-fold serial dilutions were dispensed. The final concentration of DMSO was 0.3% (v/v) in each well. The positive control used was staurosporine (10 μM) as the kill-all control, and the negative control used is DMSO as we have published. Staurosporine is a potent alkaloid inducer of various cell death modalities but primarily apoptosis, making it a reliable positive control for viability assays. The plates were incubated for 72 h and then quenched with CTG at 50 μL per well at RT. Plates were then incubated at RT for 20 min and centrifuged at 1000 rpm for 1 min. Luminescence was read on a CLARIOstar Plus plate reader (BMG LabTech, Ortenberg, Germany).
(§2) Three or four technical replicates were conducted for each experimental condition, and a minimum of three independent experiments were conducted for each assay. In vitro ADME values were expressed as mean ± standard deviation (SD) of at least three independent experiments. One-way analysis of variance (ANOVA) was adopted for comparisons among groups using the GraphPad Prism 10.2.3 (GraphPad Software, San Diego, CA). A difference of P < 0.05 was considered as statistically significant. Data are expressed as mean ± SEM. For CTG, the mean luminescence of each experimental treatment group was normalized as a percentage of the mean intensity of untreated controls (DMSO as vehicle). EC50 values were calculated from dose–response curve fitting via nonlinear regression using GraphPad Prism 10.2.3 (GraphPad Software, San Diego, CA). A therapeutic index (TI) between normal and tumor cell lines can be determined (EC50 non-neoplastic cell line BJ)/(EC50 cancer cell line). In vivo studies were analyzed using mixed-effects regression models to compare the changes in tumor volume over time by treatment group. Tumor volume reduction was compared using ANOVA with repeated measures, and all data was considered significant when P < 0.05.

Series [2] is described as follows: Aqueous solubility by UV/vis absorbance. The settings on record: kinetic from dmso stock. Type of series: physicochemical. From the text: (§3) First, topological polar surface area (tPSA), a widely used molecular descriptor that provides insight into compound absorption and membrane penetration, was theoretically calculated for these compounds along with the estimated c log P (partition coefficient) or log P to further assess their global therapeutic potential.[18],[19] Lipophilicity, a measurable and predictable physical property, can provide practical guidance in designing compounds with improved molecular properties.[20] The tPSA sums the contribution of the surface area of polar atoms, enabling us to determine whether the compounds are more likely to be cell membrane permeable. The aqueous solubility was measured by ultraviolet/visible (UV/vis) spectroscopy.[21] […] EP shares an improved cLogP, but still relatively high from a desirable drug candidate (2.5–3.5). […] Compound 4 has a higher c log P, while compounds 5–10 have lower c log P values. To determine LiPE (lipophilicity efficiency), the following formula was used: LiPE = pIC50 – log P, according to established methods.[22],[23] […] The obtained EC50 values for the newly generated EP derivatives were within a similar range for other derivatives previously described against TNBC models.[17]
Briefly, clear 96-well PS plates with lids (catalog no. 3903, Corning, Glendale, Arizona) were used for spectrophotometric determination of absorbance with a CLARIOstar Plus plate reader (BMG LabTech, Ortenberg, Germany) to determine at which concentration the compounds are precipitating out of solution. Decrease in transmittance of 2% or higher was considered significant. Compound solutions of 10 mM in DMSO were prepared followed by a serial dilution series, which were vortexed to ensure the solutions were homogeneous. The 96-well plate was then prepared with distilled H2O and allowed to equilibrate for 1.5 h. Then, the plate was placed in a CLARIOstar Plus plate reader or Cytation C10 (Biotek, Agilent) and set to detect absorbance at 220–700 nm. Each well was read individually. Three replicate assays were conducted for each experimental condition, and a minimum of three independent experiments were conducted.

The test system of series [3] is SUM149. Briefly: CellTiter-Glo 72 h cytotoxicity assay, SUM149. In kind it is cell-based. The settings on record: Homo sapiens; for EC50: SUM149, CTG assay, 72 h; for IC50: calculated from SUM149 EC50.
From the text: as §3, §1
Three or four technical replicates were conducted for each experimental condition, and a minimum of three independent experiments were conducted for each assay. In vitro ADME values were expressed as mean ± standard deviation (SD) of at least three independent experiments. One-way analysis of variance (ANOVA) was adopted for comparisons among groups using the GraphPad Prism 10.2.3 (GraphPad Software, San Diego, CA). A difference of P < 0.05 was considered as statistically significant. […]

Series [4] concerns BJ. Description: CellTiter-Glo 72 h cytotoxicity assay, BJ normal fibroblasts. Type of series: cell-based. The note with it: Homo sapiens, CTG assay, noncancerous fibroblasts. The method, then: as §1, §2
Background: In ATP-based viability assays light output follows the ATP content of the culture.

The nature of series [5]: Caco-2 permeability assay. Type of series: in vitro ADME. The note with it: human. The protocol: It was performed in the 96-well Transwell system with a modified method.[36] Caco-2 cells were maintained at 37 °C in a humidified incubator with an atmosphere of 5% CO2. The cells were cultured in MEM containing 20% FBS in […], 100 units/mL penicillin, and 100 μg/mL of streptomycin. The Caco-2 cells were seeded onto inserts of a 96-well plate at a density of 0.5 × 10^5 cells/insert and cultured in the MEM containing 20% FBS for 7 days. Each cultured monolayer on the 96-well plate was washed twice with HBSS/HEPES (10 mM, pH 7.4). The permeability assay was initiated by the addition of each compound solution (10 μmol/L) into inserts (apical side, A) or receivers (basolateral side, B). The Caco-2 cell monolayers were incubated for 2 h at 37 °C. Fractions were collected from receivers (if apical to basal permeability) or inserts (if basal to apical permeability), and concentrations were assessed by UPLC/MS (Waters; Milford, MA). All compounds were tested in triplicates. The A → B (or B → A) apparent permeability coefficients ([…]) of each compound were calculated using the equation Pappa = dQ/dt × 1/AC0. The flux of a drug across the monolayer is dQ/dt (μmol/s). The initial drug concentration on the apical side is C0 (μmol/L). The surface area of the monolayer is A (cm^2).
A general note: Caco-2 monolayers are a common model of the intestinal barrier.

Series [6] is described as follows: Simulated gastric fluid (SGF) stability. Type of series: in vitro ADME. The note with it: simulated gi fluid; simulated gastric fluid; read-out: SGF stability t1/2 (converted). The protocol: The simulated gastric fluid (SGF) assay is an important element in determining the overall drug-like potential of compounds.[29],[30] Anecdotal studies of oral consumption of extracts by humans indicate positive outcomes of digestion of mixtures of EP and its related natural products found in G. lucidum.[2] […] Chlorambucil was used as positive control as previously described.[32],[33] […] Caco-2 permeability studies were conducted to validate and to provide information on EP’s ability to cross the intestinal barrier and its potential for interactions with drug transporters.[36]−[39] The rate of transport in both directions (A-B and B-A) across the cell monolayer enables an efflux ratio (B-A/A-B) to be determined, enabling us to determine if a compound undergoes active efflux (efflux ratio ≥2).

The nature of series [7]: Plasma stability assay (mouse). The note with it: male, Balb/c, mouse, plasma.
A short description of series [8]: Plasma stability assay (human).

The EC50 is the concentration giving half of the maximal effect. As usually defined, the solubility is how much of the substance goes into solution per volume. Usually IC50 stands for the point on the concentration scale where inhibition reaches its midpoint. With `CC(C)[C@@H](C)/C=C/[C@@H](C)[C@H]1CC[C@H]2C3=CC=C4C[C@@H](O)CC[C@]4(C)[C@H]3CC[C@]12C` [Compound 1, Ergosterol], the EC50 in series [1] was > 120 µM; in series [3] it was 61 µM. In addition, the solubility at […] in series [2] (distilled water, distilled H2O, UV/vis, read-out: solubility limit) came out at 0.59 µg/mL (≈ 1.49 µM). In addition, the IC50 in series [3] is 61.7 µM.
In the case of `C=CC(=O)O[C@H]1CC[C@]2(C)[C@H]3CC[C@]4(C)[C@@H]([C@H](C)/C=C/[C@H](C)C(C)C)CC[C@H]4[C@@]34C=C[C@]2(C1)OO4` [Compound 4], the EC50 in series [1] was found to be 47.6 µM; in series [4], 92.5 µM; in series [3] it was 31 µM. Also, in series [2] (water), the solubility at […] was found to be 24.1 µg/mL (≈ 50 µM). Besides, in series [3], the IC50 was 31.6 µM.
Consider `CC(C)[C@@H](C)C1OC1[C@@H](C)[C@H]1CC[C@@H]2[C@]1(C)CC[C@H]1[C@]23C=C[C@]2(C[C@@H](O)CC[C@]12C)OO3` (stereo partly drawn) [Compound 5], for which the EC50 in series [1] worked out at 15.7 µM; in series [4], 70.4 µM; in series [3], 2.74 µM. The same compound returned a solubility at […] in series [2] (water) of 5.56 µg/mL (≈ 12.5 µM). Besides, the IC50 in series [3] was 2.75 µM.
The corresponding values for `CC(C)[C@@H](C)C1OC1[C@@H](C)[C@H]1CC[C@@H]2[C@]1(C)CC[C@H]1[C@]23C=C[C@]2(C[C@@H](OS(=O)(=O)O)CC[C@]12C)OO3` (stereo partly drawn) [Compound 5a] are 7.37 µM, 48 µM, 2.24 µM, 26.2 µg/mL (≈ 49.9 µM) and 2.29 µM.
As for `CC(C)[C@@H](C)/C=C/[C@@H](C)[C@H]1CC[C@@H]2[C@]1(C)CC[C@H]1[C@@]23OO[C@@]2(C[C@@H](O)CC[C@]12C)C(O)C3O` (stereo partly drawn) [Compound 6], the EC50 stood at 25.4 µM in series [1], 135 µM in series [4] and 14.5 µM in series [3]. The compound also showed a solubility at […] in series [2] (water) of 23.1 µg/mL (≈ 50 µM). Moreover, the IC50 in series [3] is 14.8 µM.
For `CC(C)[C@@H](C)C(O)C(O)[C@@H](C)[C@H]1CC[C@@H]2[C@]1(C)CC[C@H]1[C@@]23OO[C@@]2(C[C@@H](O)CC[C@]12C)C(O)C3O` (stereo partly drawn) [Compound 8] the same measures were 29.7 µM, 172 µM, 6.42 µM, 24.8 µg/mL (≈ 50 µM) and 6.46 µM.
Take `CC(C)[C@@H](C)/C=C/[C@@H](C)[C@H]1CC[C@@H]2[C@]1(C)CC[C@H]1[C@]23C=C[C@]2(C[C@@H](OS(=O)(=O)O)CC[C@]12C)OO3` [Compound 9]: the figures for the EC50 in series [1], in series [4] and in series [3] were 3.47 µM, 50 µM and 2.7 µM, respectively. The solubility at […] in series [2] (water) was 15.5 µg/mL (≈ 30.5 µM). In series [3], the IC50 was 2.75 µM.
As for `CC(C)[C@@H](C)/C=C/[C@@H](C)[C@H]1CC[C@@H]2[C@]1(C)CC[C@H]1[C@@]23OO[C@@]2(C[C@@H](OS(=O)(=O)O)CC[C@]12C)C(OS(=O)(=O)O)C3OS(=O)(=O)O` (stereo partly drawn) [Compound 10], the values for the concentration giving a half-maximal response (EC50) in series [1], in series [4] and in series [3] were 10.7 µM, 77.9 µM and 3.11 µM, respectively. Besides, the concentration in solution in series [2] (water) (solubility at […]) was 17.8 µg/mL (≈ 25.4 µM). Further, the IC50 in series [3] is 3.09 µM.
In general, Papp A→B refers to the apparent permeability from the apical to the basolateral side of a cell layer. Low values mean slow passage, high ones fast passage. In general, Papp B→A refers to how fast a substance crosses the layer from the basolateral side. Turning to `NC(=O)N1c2ccccc2C=Cc2ccccc21` [carbamazepine, reference compound], in series [5] (Caco-2, pH 7.4, Caco-2, read-out: efflux ratio (B2A/A2B)), the efflux ratio at 2 h, 10 µmol/L is 0.74. The same compound gave a Papp A→B at 2 h, 10 µmol/L in series [5] (Caco-2, pH 7.4, apical to basolateral) of 37.6 ×10⁻⁶ cm/s. In series [5] (Caco-2, pH 7.4, basolateral to apical), this compound displayed an apparent permeability from basolateral to apical (Papp B→A) at 2 h, 10 µmol/L of 27.7 ×10⁻⁶ cm/s.
`O=C(O)CCCc1ccc(N(CCCl)CCCl)cc1` [chlorambucil, reference compound]: in series [6], the half-life was 18.4 h.
`CC1CC(OC(=O)C(O)c2ccccc2)CC(C)(C)N1C` (stereo not drawn) [eucatropine, reference compound]: the half-life in series [7] is 1.87 h; in series [8] it was 0.41 h.
